{"source": "patent US20240122872A1", "about": "“COMPOSITIONS AND METHODS FOR TREATMENT OF MICROBIAL INFECTIONS” (EpiTop, Inc., priority 2022, published 2024)", "key": {"coronavirus (229E-VR740)": {"system": "coronavirus (229E-VR740)", "assay": "Relative gene expression of coronavirus 229E in human fibroblasts (real time RT-PCR)", "format": "cell-based", "conditions": "0.01% or 0.02% thujopsene, 24 hours", "procedure": "Human fibroblasts (Atcc.org, CCL-191) were treated with coronavirus (229E) and 0.01% or 0.02% of thujopsene for 24 hours, and then RNAs were isolated and PCRs were performed. Total RNA was isolated according to manufacturer's guidelines. RNeasy Mini Kits (Qiagen, Germantown, MD) were used according to the manufacturer's protocol to isolate RNA. RNA was reverse transcribed into cDNA using SuperScript® VILO™ MasterMix according to manufacturer's protocol and DNA was isolated according to manufacturer's guidelines. cDNAs were analyzed by real time RT-PCR by using an ABI Prism 7300 sequence detector."}, "[1]": {"system": "coronavirus 229E (VR-740)", "assay": "Coronavirus 229E-mediated destruction of human fibroblasts (microscopy)", "format": "cell-based", "conditions": "229E 0.05 pfu/cell, 3 days or 5 days", "procedure": "Normal human lung fibroblst (ATCC.org, CCL-191) were seeded at 1×10^5 cells/well in 24 well plates (Becton Dickinson, Torreyana, CA) and allowed to grow to confluence overnight at 37° C., 5% CO2 in Earle's MEM with 10% fetal calf serum (FCS). To examine whether thujopsene prevents coronavirus (229E)-induced destruction of fibroblast, fibroblasts were incubated with thujopsene (0.00, 0.01 or 0.02%) and 229E (0.05 pfu/cell) for 3 days or 5 days at 37° C. and 5% CO2. Then cell images (x25 magnification) were taken with the microscopy (Leica, Wetzler, Germany)."}, "Vaccinia virus (VV)": {"system": "Vaccinia virus (VV)", "format": "cell-based"}, "HSV-1": {"system": "HSV-1", "assay": "HSV-1 plaque assay (virus incubated with thujopsene, BS-C-1 cells)", "format": "cell-based", "procedure": "BS-C-1 African green monkey kidney cells were seeded at 2×10^5 cells/well in 24 well plates (Becton Dickinson, Torreyana, CA) and allowed to grow to confluence overnight at 37° C., 5% CO2 in Earle's MEM with 10% fetal calf serum (FCS). To examine the effects of thujopsene, 0, 0.01, and 0.02% of thujopsene were incubated with […] HSV-1 for 2 or 4 hours, at 37° C. and 5% CO2. For the plaque assay, the medium was removed and wells were overlaid with 0.5 ml 4% buffered formalin, allowed to fix for 10 minutes at room temperature. The formalin was removed and 0.5 ml 0.1% crystal violet in PBS was added to the wells for 5 minutes at room temperature. Wells were then aspirated and the air-dried for visualization of plaques."}, "[2]": {"system": "Streptococcus pyogenes (ATCC BAA-19615)", "assay": "Bactericidal assay (colony count), S. pyogenes", "conditions": "2 hours at 37° C.; concentration as low as 0.0001%; thujopsene (0.001%), totarol (0.0001%) or combination"}}, "note": "Where two headings read alike, the source gives them in different places."}
{"smiles": "CC1=CC[C@]2(C)CCCC(C)(C)[C@@]23C[C@@H]13", "note": "[thujopsene]", "values": [{"measurement": "Relative gene expression of 229E (coronavirus VR740)", "setting": "coronavirus (229E-VR740); 0.01 pfu/cell", "result": "decreased in a dose-dependent manner"}, {"measurement": "Relative gene expression of 229E (coronavirus VR740)", "setting": "coronavirus (229E-VR740); 0.05 pfu/cell", "result": "decreased in a dose-dependent manner"}, {"measurement": "Cellular structure of fibroblasts after treatment with coronavirus 229E", "setting": "[1]; 0.01% thujopsene", "result": "the cellular structures were maintained"}, {"measurement": "Cellular structure of fibroblasts after treatment with coronavirus 229E", "setting": "[1]; 0.02% thujopsene", "result": "the cellular structures were maintained"}, {"measurement": "Decrease of titers of virus", "setting": "Vaccinia virus (VV); 2-hour incubation with 0.02% thujopsene", "result": "at least 25%"}, {"measurement": "Decrease of titers of virus", "setting": "Vaccinia virus (VV); 4-hour incubation with 0.02% thujopsene", "result": "at least 25%"}, {"measurement": "Decrease of titers of virus", "setting": "HSV-1; 2-hour incubation with 0.01% thujopsene", "result": "at least 90%"}, {"measurement": "Decrease of titers of virus", "setting": "HSV-1; 2-hour incubation with 0.01% thujopsene (first statement)", "result": "at least 50%"}, {"measurement": "Decrease of titers of virus", "setting": "HSV-1; 4-hour incubation with 0.01% thujopsene", "result": "at least 90%"}, {"measurement": "Inhibition of S. Pyogenes", "setting": "[2]", "result": "significantly inhibited"}]}
{"smiles": "CC(C)c1c(O)ccc2c1CC[C@H]1C(C)(C)CCC[C@]21C", "note": "[totarol]", "values": [{"measurement": "Inhibition of S. Pyogenes", "setting": "[2]", "result": "significantly inhibited"}]}
